Laboratory results reported in patent US8785682B2, “Tetranor PGDM: a biomarker of PGD2 synthesis in vivo” (The Trustees of the University of Pennsylvania, priority 2007, dated 2014).
Where two headings read alike, the source gives them in different places.

What was measured:
[1] = Infusion of exogenous PGD2 i.p. into mice, urinary PGD2 metabolites; format: in vivo, mouse
Protocol: (§1) Urine analysis: ^18O2-2,3-dinor-11β-PGF2α, and ^18O^2-11β-PGF2α were added to 1 milliliter (ml) of human urine or […] of mouse urine and were allowed to equilibrate for 15 minutes. […] The resulting residue was then reconstituted with 100 μl of 5% acetonitrile in water and was filtered by centrifugation.
(§2) The ESI source used nitrogen for both sheath and auxiliary gas and was set at 70 and 5 (arbitrary units), respectively. The mass spectrometer was operated in the negative ion mode with a capillary temperature of 350° C. and a spray voltage of 2.0 kV. […] The transitions for endogenous 2,3-dinor-11β-PGF2α and ^18O2-2,3-dinor-11β-PGF2α, were m/z 325→145 and m/z 329→145 with CE 13 eV, respectively. They were m/z […] and m/z 357→197 for 9α,11β-PGF2α and ^18O2-9α,11β-PGF2α with CE 24 eV.
Studies in mice: All studies were performed following protocol review and approval by the Institutional Animal Care and Use Committee (IAUCC) of the University of Pennsylvania. (i) Infusion studies: vehicle or PGD2 [20, 150 or 500 μg] was infused i.p. into twelve-week-old male C57/BL6 mice (n=5 per group). Urine was collected for 24 hours in metabolic cages for analysis of PGD2 metabolites. (ii) PGDS knockouts: Urine was collected for 24 hours from three- to four-month-old male wild type mice, L-PGDS knockout mice (kindly provided by Dr. Yoshihiro Urade, Osaka, Japan) and H-PGDS knockout mice (kindly provided by Dr. Yoshihide Kanaoka, Boston, Mass.), all on a C57/BL6 background (n=15 for WT and LPGDS knockouts and n=10 for H-PGDS knockouts).
(§3) Results are expressed as mean+/−SEM.

biosynthesis of PGD2 [2] = experiment: Aspirin single dose in healthy volunteers, urinary PGD2 metabolites; format: in vivo, human; conditions: mean±SEM
Protocol: as §1, §2
(§4) Clinical Studies: Four clinical studies were performed.
In a fourth study, a single dose of aspirin (325 mg) was administered to healthy volunteers (n=18; 9 males and 9 females). Urinary PGD2 metabolites were assessed at time 0 in spot urines and 0-4 hours in urine collected from 0-4 hrs after dosing.
as §3

PGD2 levels = experiment: Urinary tetranor PGDM in patients undergoing PTCA; format: in vivo, human; conditions: for Level of tetranor-PGDM, Post-PTCA, no aspirin / Level of tetranor-PGDM, Pre-PTCA, no aspirin / Level of tetranor-PGDM, During-PTCA, no aspirin: patient (n=1) on clopidogrel and no aspirin
Source text: PGD2 levels were studied in patients undergoing percutaneous transluminal coronary angioplasty (PTCA). PTCA is a common non-surgical treatment for opening obstructed coronary arteries. During PTCA, a balloon-tipped catheter is threaded from an artery in the groin to the trouble spot in the artery of the heart. The balloon is then inflated, thereby compressing the plaque and opening (dilating) the narrowed coronary artery so that blood flow is improved. In some instances, an expandable metal stent is also inserted; stents are wire mesh tubes used to counteract further constriction. The inclusion and exclusion criteria for participation in the PGD2 level assessment were as follows. Inclusion: • a. Males and females between the ages of 18-99. • b. […] Treated with any dose of aspirin (acetylsalicylic acid; ASA) daily for at least 5 days OR • 2. […] Treated with an alternative antiplatelet therapy, such as clopidogrel, due to an aspirin hypersensitivity or PMDs preference OR • 4. […] No aspirin therapy at all. • c. Patients presenting to the emergency room (ER) with Acute Coronary Syndrome (ACS) who will have a PTCA. • d. Patients with stable angina or positive stress tests scheduled for a cardiac catheterization. Exclusion: • a. History of unstable diabetes (Hgb A1c>8 or FBS>200). • b. Uncontrolled hypertension (SBP>180, DBP>100). • c. History of an acute confounding disease as judged on clinical screen that according to the investigator may interfere with interpretation of the study results, or compromise the safety of a potential subject. • d. […] Nineteen (19) subjects scheduled for elective PTCA and/or who presented to the emergency room with acute coronary syndrome and subsequently ordered a PTCA were screened according to the inclusion and exclusion criteria. […] Urine was collected from each subject at three times. […] Urine samples were kept at −80° C. The tetranor PDGM level in each sample was then determined by stable isotope dilution, tandem mass spectrometric quantification, following thawing of the sample. The tetranor PGDM level was normalized to the quantity in milligrams (mg) of urine creatinine.

[3] = Protocol: (§5) In a second study, niacin (dose was 400 mg or 600 mg) was administered to two healthy male volunteers. Urinary PGD2 metabolites were assessed in spot urines collected at the following time points before (time 0) and after (1, 2, 3, 4, 5, 6 hours) niacin administration.
biosynthesis of PGD2 [4] = test system: biosynthesis of PGD2
Protocol: as §5

biosynthesis of PGD2 [5] = experiment: Rofecoxib single dose in healthy volunteers, urinary PGD2 metabolites; format: in vivo, human; conditions: rofecoxib 25 mg single dose, 0 vs 4 hours
Protocol: as §1, §2, §4
In a third study, 18 healthy volunteers (9 male and 9 female) received, in random order, a single dose of placebo or rofecoxib (25 mg) under double-blind conditions, separated by washout periods of at least 2 weeks. Urinary PGD2 metabolites were assessed at 0 and 4 hours in spot urine samples that were collected 30 minutes after voiding.
as §3

[6] = mice, 20, 150 or 500 μg PGD2 i.p.
[7] = mice, maximal dose 500 ug PGD2 i.p., 24 h urine, mean±SEM
[8] = time 0, before aspirin 325 mg single dose
[9] = niacin 400 mg or 600 mg, spot urines 0-6 hours

**Q.** For CCCCC[C@H](O)/C=C/[C@H]1C(=O)C[C@H](O)[C@@H]1C/C=C\CCCC(=O)O [PGD2, prostaglandin D2], which “fractional conversion of PGD2 to each metabolite” value [1, 6] is on record?
**A.** The value was “uninfluenced by dose”.

**Q.** And the “response of all 3 urinary metabolites to PGD2 infusion” value [1, 6]?
**A.** Its value is “increased dose dependently”.

**Q.** What about the “infused PGD2 excreted as the tetranor PGDM metabolite in mouse urine” value ([1]; mice, i.p. infusion) of the same compound?
**A.** Its value is 3-10%.

**Q.** What about the “urinary 2,3-dinor-11β-PGF2α level attained after PGD2 infusion” value [1, 7] of the same compound?
**A.** Its value is 809±346 ng/mg creatinine.

**Q.** And the “urinary 11β-PGF2α level attained after PGD2 infusion” value [1, 7]?
**A.** Its value is 207±67 ng/mg creatinine.

**Q.** What about the “urinary tetranor PGDM level attained after PGD2 infusion” value [1, 7] of the same compound?
**A.** Its value is 2498±792 ng/mg creatinine.

**Q.** For CC(=O)Oc1ccccc1C(=O)O [aspirin, acetylsalicylic acid], which “urinary tetranor PGDM level following aspirin” value (biosynthesis of PGD2 [2]; 0-4 hrs after aspirin 325 mg single dose, p<0.001) is on record?
**A.** Its value is 0.86±0.07 ng/mg creatinine.

**Q.** What about the “urinary 2,3-dinor-11β-PGF2α level following aspirin” value (biosynthesis of PGD2 [2]; 0-4 hrs after aspirin 325 mg single dose, p<0.01) of the same compound?
**A.** Its value is 0.32±0.04 ng/mg creatinine.

**Q.** What about the “urinary 2,3-dinor-11β-PGF2α level before aspirin” value (biosynthesis of PGD2 [2]; [8]) of the same compound?
**A.** The value was 0.63±0.11 ng/mg creatinine.

**Q.** And the “urinary tetranor PGDM level before aspirin” value (biosynthesis of PGD2 [2]; [8])?
**A.** Its value is 1.71±0.21 ng/mg creatinine.

**Q.** And the “Level of tetranor-PGDM, Post-PTCA, 81 mg aspirin” value (PGD2 levels; patients (n=3) on daily 81 mg aspirin, urine after procedure)?
**A.** Its value is 3.1 ng/mg creatinine.

**Q.** What about the “Level of tetranor-PGDM, Pre-PTCA, 81 mg aspirin” value (PGD2 levels; patients (n=3) on daily 81 mg aspirin, urine before procedure) of the same compound?
**A.** The value was 2.6 ng/mg creatinine.

**Q.** And the “Level of tetranor-PGDM, During-PTCA, 81 mg aspirin” value (PGD2 levels; patients (n=3) on daily 81 mg aspirin, urine during procedure)?
**A.** The value was 1.8 ng/mg creatinine.

**Q.** What about the “Level of tetranor-PGDM, Post-PTCA, 325 mg aspirin” value (PGD2 levels; patients on daily 325 mg aspirin, urine after procedure) of the same compound?
**A.** The value was 3.1 ng/mg creatinine.

**Q.** And the “Level of tetranor-PGDM, Pre-PTCA, 325 mg aspirin” value (PGD2 levels; patients on daily 325 mg aspirin, urine before procedure)?
**A.** The value was 2.9 ng/mg creatinine.

**Q.** And the “Level of tetranor-PGDM, During-PTCA, 325 mg aspirin” value (PGD2 levels; patients on daily 325 mg aspirin, urine during procedure)?
**A.** Its value is 2.8 ng/mg creatinine.

**Q.** What does the source list for COC(=O)[C@H](c1ccccc1Cl)N1CCc2sccc2C1 [clopidogrel]?
**A.** Level of tetranor-PGDM, Post-PTCA, no aspirin (PGD2 levels; urine after procedure): 13.1 ng/mg creatinine; Level of tetranor-PGDM, Pre-PTCA, no aspirin (PGD2 levels; urine before procedure): 11.5 ng/mg creatinine; Level of tetranor-PGDM, During-PTCA, no aspirin (PGD2 levels; urine during procedure): 26.3 ng/mg creatinine

**Q.** What does the source list for O=C(O)c1cccnc1 [niacin]?
**A.** time after which flushing had dissipated ([3]; niacin 400 mg or 600 mg oral): 2 to 3 h; flushing after oral administration ([3]; niacin 400 mg or 600 mg, two volunteers, face and upper part of the body): intense flush; relationship between metabolite excretion and the doses of niacin (biosynthesis of PGD2 [4]; 400 mg vs 600 mg): not apparent; time of fall of urinary metabolites to basal levels after dosing (biosynthesis of PGD2 [4]; niacin 400 mg or 600 mg): 5 to 6 h; time of peak of urinary tetranor PGDM and 2,3-dinor-11β-PGF2α after dosing (biosynthesis of PGD2 [4]; niacin 400 mg or 600 mg): 2 to 3 h; effect on urinary 2,3-dinor-11β-PGF2α (biosynthesis of PGD2 [4]; [9]): elevated; effect on urinary tetranor PGDM (biosynthesis of PGD2 [4]; [9]): elevated

**Q.** For CS(=O)(=O)c1ccc(C2=C(c3ccccc3)C(=O)OC2)cc1 [rofecoxib], which “effect on urinary 2,3-dinor-11β-PGF2α” value (biosynthesis of PGD2 [5]) is on record?
**A.** The value was “failed to depress”.

**Q.** And the “effect on urinary tetranor PGDM” value (biosynthesis of PGD2 [5])?
**A.** The value was “failed to depress”.

**Q.** Which results are given for O=C(O)CCCCC(=O)CC[C@H]1C(=O)C[C@H](O)[C@@H]1CCC(=O)O [tetranor PGDM, 11,15-dioxo-9α-hydroxy-2,3,4,5-tetranor-prostan-1,20-dioic acid]?
**A.** Level of tetranor-PGDM, Post-PTCA, no aspirin (PGD2 levels; urine after procedure): 13.1 ng/mg creatinine; Level of tetranor-PGDM, Pre-PTCA, no aspirin (PGD2 levels; urine before procedure): 11.5 ng/mg creatinine; Level of tetranor-PGDM, During-PTCA, no aspirin (PGD2 levels; urine during procedure): 26.3 ng/mg creatinine
